# Measurements as given in ChEMBL document CHEMBL1152876, “Synthesis and evaluation of novel phosphoramidate prodrugs of 2'-methyl cytidine as inhibitors of hepatitis C virus NS5B polymerase” (Bioorg Med Chem Lett, 2009).
# How the values were obtained:
# [1] = tested on: Hepatitis C virus; assay: Antiviral activity against HCV infected in human hepatoma cells by replicon assay; assay type: functional, Hepacivirus hominis
# [2] = tested on: Rattus norvegicus; assay: Metabolic stability in rat liver assessed as nucleoside triphosphate formation at 30 umol/kg, po after 6 hrs; settings: in vivo
# [3] = tested on: Hepatocyte; assay: Metabolic stability in human hepatocyte assessed as nucleoside triphosphate at 10 uM level after 2 hrs; settings: hepatocytes
# [4] = tested on: Hepatocyte; assay: Metabolic stability in rat hepatocyte assessed as nucleoside triphosphate at 10 uM level after 2 hrs; settings: hepatocytes
Stability [3] [µM],Stability [4] [µM],SMILES,Activity [1] [nM],Stability [2] [nmol/g]
–,–,C[C@@]1(O)[C@H](O)[C@@H](COP(=O)(NCCOC(=O)C2CCCCCC2)Oc2ccccc2)O[C@H]1n1ccc(N)nc1=O (some centres not stated),1160,–
–,–,CC(C)(C)C(=O)OCCNP(=O)(OC[C@H]1O[C@@H](n2ccc(N)nc2=O)[C@](C)(O)[C@@H]1O)Oc1ccccc1 (some centres not stated),226,–
–,–,C[C@@]1(O)[C@H](O)[C@@H](COP(=O)(NCCOC(=O)c2ccccc2)Oc2ccccc2)O[C@H]1n1ccc(N)nc1=O (some centres not stated),1960,0.3
–,–,CC(C)C(=O)OCC(Cc1ccccc1)NP(=O)(OC[C@H]1O[C@@H](n2ccc(N)nc2=O)[C@](C)(O)[C@@H]1O)Oc1ccccc1 (some centres not stated),921,–
–,–,CC(C)C(=O)O[C@H]1CCN(P(=O)(OC[C@H]2O[C@@H](n3ccc(N)nc3=O)[C@](C)(O)[C@@H]2O)Oc2ccccc2)C1 (some centres not stated),<20000,–
–,–,CC(C)CC(COC(=O)C(C)(C)C)NP(=O)(OC[C@H]1O[C@@H](n2ccc(N)nc2=O)[C@](C)(O)[C@@H]1O)Oc1ccccc1 (some centres not stated),1840,–
–,–,CC(CNP(=O)(OC[C@H]1O[C@@H](n2ccc(N)nc2=O)[C@](C)(O)[C@@H]1O)Oc1ccccc1)OC(=O)C(C)C (some centres not stated),585,–
–,–,CCC(CC)C(=O)OCCNP(=O)(OC[C@H]1O[C@@H](n2ccc(N)nc2=O)[C@](C)(O)[C@@H]1O)Oc1ccccc1 (stereo in doubt; 9) [DIASTEREOMERIC MIX],2830,–
–,–,CCC(CC)C(=O)OCCNP(=O)(OC[C@H]1O[C@@H](n2ccc(N)nc2=O)[C@](C)(O)[C@@H]1O)Oc1ccccc1 (stereo in doubt; 9b) [DIASTEREOMERIC MIX],625,–
–,–,"CCCC(CCC)C(=O)OCCNP(=O)(OC[C@H]1O[C@@H](n2ccc(N)nc2=O)[C@](C)(O)[C@@H]1O)Oc1ccccc1 (stereo in doubt; 10a) [2-((((2R,3R,4R,5R)-5-(4-AMINO-2-OXOPYRIMIDIN-1(2H)-YL)-3,4-DIHYDROXY-4-METHYLTETRAHYDROFURAN-2-YL)METHOXY)(PHENOXY)PHOSPHORYLAMINO)ETHYL 2-PROPYLPENTANOATE (DIASTEREOMERIC  MIX)]",450,–
–,–,"CCCC(CCC)C(=O)OCCNP(=O)(OC[C@H]1O[C@@H](n2ccc(N)nc2=O)[C@](C)(O)[C@@H]1O)Oc1ccccc1 (stereo in doubt; 10b) [2-((((2R,3R,4R,5R)-5-(4-AMINO-2-OXOPYRIMIDIN-1(2H)-YL)-3,4-DIHYDROXY-4-METHYLTETRAHYDROFURAN-2-YL)METHOXY)(PHENOXY)PHOSPHORYLAMINO)ETHYL 2-PROPYLPENTANOATE (DIASTEREOMERIC  MIX)]",240,0.2
17,< 14,CC(C)[C@H](N)C(=O)O[C@@H]1[C@@H](CO)O[C@@H](n2ccc(N)nc2=O)[C@]1(C)O [VALOPICITABINE],7600,0.2
